In patent US20090042964A1, “AMINO-5-[SUBSTITUTED-4-(DIFLUOROMETHOXY)PHENYL]-5-PHENYLIMIDAZOLONE COMPOUNDS AS BETA-SECRETASE INHIBITORS” (Wyeth, priority 2007, published 2009):

Target: human BACE1 (Homo sapiens, UniProt P56817)
Experiment: Fluorescent kinetic assay, evaluation of BACE1 binding affinity of test compounds
Assay type: biochemical
Settings: 10 nM human BACE1, 25 μM substrate WABC-6, pH 4.5, room temperature; read-out: BACE1 IC50
Protocol: Concentration is determined by absorbance at 354 nm using an extinction coefficient of 18172 M^-1 cm^-1, the concentration of stock substrate is corrected, and the substrate stock stored in small aliquots in -80° C. […] Determination of Stock Enzyme Concentration: the stock concentration of each enzyme is determined by absorbance at 280 nm using an of 64150 M^-1 cm^-1 for hBACE1 and MuBACE1, 62870 M^-1 cm^-1 for hBACE2 in 6 M Guanidinium Hydrochloride (from Research Organics, Cat. # 5134G-2), pH 6. […] Biochem. 182, 319-326). Dilution and mixing steps: total reaction volume: 100 μL 2× inhibitor dilutions in buffer A (66.7 mM Na-Acetate, pH 4.5, 0.0667% CHAPS) were prepared, 4× enzyme dilution in buffer A (66.7 mM Na-Acetate, pH 4.5, 0.0667% CHAPS) were prepared, 100 μM substrate dilution in 1×PBS was prepared, and 50 μL 2× Inhibitor, 25 μL 100 μM substrate are added to each well of 96-well plate (from DYNEX Technologies, VWR #: 11311-046), immediately followed by 25 μL 4× enzyme (added to the inhibitor and substrate mix), and the fluorescence readings are initiated.

human BACE1, sequence (P56817 46-501): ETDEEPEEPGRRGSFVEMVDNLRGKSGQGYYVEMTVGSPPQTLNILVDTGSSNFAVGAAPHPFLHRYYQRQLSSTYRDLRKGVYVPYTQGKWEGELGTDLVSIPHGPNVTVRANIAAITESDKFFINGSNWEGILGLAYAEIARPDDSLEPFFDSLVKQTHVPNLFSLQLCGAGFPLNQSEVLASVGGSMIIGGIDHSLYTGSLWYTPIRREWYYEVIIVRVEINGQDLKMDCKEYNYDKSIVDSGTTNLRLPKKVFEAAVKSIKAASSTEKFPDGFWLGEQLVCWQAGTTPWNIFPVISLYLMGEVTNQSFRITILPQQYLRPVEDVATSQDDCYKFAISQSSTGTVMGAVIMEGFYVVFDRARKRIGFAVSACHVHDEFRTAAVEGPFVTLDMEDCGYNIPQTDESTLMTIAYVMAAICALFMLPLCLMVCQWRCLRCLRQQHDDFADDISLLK

**Q.** Which IC50 does the source give for CCCCOc1cccc(C2(c3ccc(OC(F)F)c(Cl)c3)N=C(N)N(C)C2=O)c1 (stereo not drawn) [Example 35, 2-Amino-5-(3-butoxyphenyl)-5-[3-chloro-4-(difluoromethoxy)-phenyl]-3-methyl-3,5-dihydro-4H-imidazol-4-one] here?
**A.** The IC50 was less than 0.1 µM.

**Q.** CCOc1cccc(C2(c3ccc(OC(F)F)c(Cl)c3)N=C(N)N(C)C2=O)c1 (stereo not drawn) [Example 36, 2-Amino-5-[3-chloro-4-(difluoromethoxy)phenyl]-5-(3-ethoxyphenyl)-3-methyl-3,5-dihydro-4H-imidazol-4-one] was tested. Which IC50 did it give?
**A.** The IC50 was 0.11 to 1 µM.

**Q.** CN1C(=O)C(c2cccc(OCCF)c2)(c2ccc(OC(F)F)c(Cl)c2)N=C1N (stereo not drawn) [Example 37, 2-Amino-5-[3-chloro-4-(difluoromethoxy)phenyl]-5-[3-(2-fluoroethoxy)phenyl]-3-methyl-3,5-dihydro-4H-imidazol-4-one] was tested. Which IC50 did it give?
**A.** The IC50 was less than 0.1 µM.

**Q.** How did the IC50 turn out when CN1C(=O)C(c2cccc(OCC(F)F)c2)(c2ccc(OC(F)F)c(Cl)c2)N=C1N (stereo not drawn) [Example 38, 2-Amino-5-[3-chloro-4-(difluoromethoxy)phenyl]-5-[3-(2,2-difluoroethoxy)phenyl]-3-methyl-3,5-dihydro-4H-imidazol-4-one] was run?
**A.** The IC50 was less than 0.1 µM.

**Q.** For CCCOc1cccc(C2(c3ccc(OC(F)F)c(Cl)c3)N=C(N)N(C)C2=O)c1 (stereo not drawn) [Example 39, 2-Amino-5-[3-chloro-4-(difluoromethoxy)phenyl]-3-methyl-5-(3-propoxyphenyl)-3,5-dihydro-4H-imidazol-4-one], which IC50 is on record?
**A.** The IC50 was less than 0.1 µM.

**Q.** With CN1C(=O)C(c2cccc(OCCCF)c2)(c2ccc(OC(F)F)c(Cl)c2)N=C1N (stereo not drawn) [Example 40, 2-Amino-5-[3-chloro-4-(difluoromethoxy)phenyl]-5-[3-(3-fluoropropoxy)phenyl]-3-methyl-3,5-dihydro-4H-imidazol-4-one] as the molecule, how does the IC50 read?
**A.** Its IC50 is less than 0.1 µM.

**Q.** Which IC50 does the source give for CCOc1cccc(C2(c3ccc(OC(F)F)c(C)c3)N=C(N)N(C)C2=O)c1 (stereo not drawn) [Example 41, 2-Amino-5-[4-(difluoromethoxy)-3-methylphenyl]-5-(3-ethoxyphenyl)-3-methyl-3,5-dihydro-4H-imidazol-4-one] here?
**A.** The IC50 was less than 0.1 µM.

**Q.** Which IC50 does the source give for Cc1cc(C2(c3cccc(OCCF)c3)N=C(N)N(C)C2=O)ccc1OC(F)F (stereo not drawn) [Example 42] here?
**A.** Its IC50 is less than 0.1 µM.

**Q.** How did the IC50 turn out when Cc1cc(C2(c3cccc(OCC(F)F)c3)N=C(N)N(C)C2=O)ccc1OC(F)F (stereo not drawn) [Example 43, 2-Amino-5-[3-(2,2-difluoroethoxy)phenyl]-5-[4-(difluoromethoxy)-3-methylphenyl]-3-methyl-3,5-dihydro-4H-imidazol-4-one] was run?
**A.** Its IC50 is less than 0.1 µM.

**Q.** How did the IC50 turn out when CCCOc1cccc(C2(c3ccc(OC(F)F)c(C)c3)N=C(N)N(C)C2=O)c1 (stereo not drawn) [Example 44, 2-Amino-5-[4-(difluoromethoxy)-3-methylphenyl]-3-methyl-5-(3-propoxyphenyl)-3,5-dihydro-4H-imidazol-4-one] was run?
**A.** The IC50 was less than 0.1 µM.

**Q.** With Cc1cc(C2(c3cccc(OCCCF)c3)N=C(N)N(C)C2=O)ccc1OC(F)F (stereo not drawn) [Example 45, 2-Amino-5-[4-(difluoromethoxy)-3-methylphenyl]-5-[3-(3-fluoropropoxy)phenyl]-3-methyl-3,5-dihydro-4H-imidazol-4-one] as the molecule, how does the IC50 read?
**A.** Its IC50 is less than 0.1 µM.

**Q.** With Cc1cc(C2(c3ccc(F)c(C#CC(C)C)c3)N=C(N)N(C)C2=O)ccc1OC(F)F (stereo not drawn) [Example 48, 2-Amino-5-[4-(difluoromethoxy)-3-methylphenyl]-5-[4-fluoro-3-(3-methylbut-1-yn-1-yl)phenyl]-3-methyl-3,5-dihydro-4H-imidazol-4-one] as the molecule, how does the IC50 read?
**A.** The IC50 was less than 0.1 µM.

**Q.** For COC/C=C/c1cc(C2(c3ccc(OC(F)F)c(C)c3)N=C(N)N(C)C2=O)ccc1F (stereo not drawn) [Example 57, 2-Amino-5-(4-difluoromethoxy-3-methylphenyl)-5-[4-fluoro-3-((E)-3-methoxypropenyl)phenyl]-3-methyl-3,5-dihydro-imidazol-4-one], which IC50 is on record?
**A.** The IC50 was less than 0.1 µM.

**Q.** How did the IC50 turn out when Cc1cc(C2(c3ccc(F)c(/C=C/CCF)c3)N=C(N)N(C)C2=O)ccc1OC(F)F (stereo not drawn) [Example 58, 2-Amino-5-[4-(difluoromethoxy)-3-methylphenyl]-5-[4-fluoro-3-((E)-4-fluorobut-1-enyl)phenyl]-3-methyl-3,5-dihydro-4H-imidazol-4-one] was run?
**A.** The IC50 was less than 0.1 µM.

**Q.** For C/C=C/c1cc(C2(c3ccc(OC(F)F)c(C)c3)N=C(N)N(C)C2=O)ccc1F (stereo not drawn) [Example 59, 2-Amino-5-[4-(difluoromethoxy)-3-methylphenyl]-5-[4-fluoro-3-((E)-prop-1-enyl)phenyl]-3-methyl-3,5-dihydro-4H-imidazol-4-one], which IC50 is on record?
**A.** Its IC50 is less than 0.1 µM.

**Q.** COCC/C=C/c1cc(C2(c3ccc(OC(F)F)c(C)c3)N=C(N)N(C)C2=O)ccc1F (stereo not drawn) [Example 60, 2-Amino-5-[4-(difluoromethoxy)-3-methylphenyl]-5-[4-fluoro-3-((E)-4-methoxy-but-1-enyl)phenyl]-3-methyl-3,5-dihydro-4H-imidazol-4-one] was tested. Which IC50 did it give?
**A.** Its IC50 is less than 0.1 µM.

**Q.** For C/C=C/c1cccc(C2(c3ccc(OC(F)F)c(C)c3)N=C(N)N(C)C2=O)c1 (stereo not drawn) [Example 61, 2-Amino-5-[4-(difluoromethoxy)-3-methylphenyl]-3-methyl-5-[((E)-3-prop-1-enyl)phenyl]-3,5-dihydro-4H-imidazol-4-one], which IC50 is on record?
**A.** Its IC50 is less than 0.1 µM.

**Q.** How did the IC50 turn out when COC/C=C/c1cccc(C2(c3ccc(OC(F)F)c(C)c3)N=C(N)N(C)C2=O)c1 (stereo not drawn) [Example 62, 2-Amino-5-[4-(difluoromethoxy)-3-methylphenyl]-5-[3-((E)-3-methoxyprop-1-enyl)phenyl]-3-methyl-3,5-dihydro-4H-imidazol-4-one] was run?
**A.** Its IC50 is less than 0.1 µM.

Same assay, conditions: BACE1 IC50 μM, 10 nM human BACE1, 25 μM substrate WABC-6, pH 4.5, room temperature

**Q.** Which IC50 does the source give for CN1C(=O)C(c2ccccc2)(c2ccc(OC(F)F)c(C(F)(F)F)c2)N=C1N (stereo not drawn) [Example 12, 2-Amino-5-[4-(difluoromethoxy)-3-(trifluoromethyl)phenyl]-3-methyl-5-phenyl-3,5-dihydro-4H-imidazol-4-one] here?
**A.** Its IC50 is 0.11 to 1 µM.

**Q.** For CN1C(=O)C(c2ccccc2)(c2ccc(OC(F)F)c(CF)c2)N=C1N (stereo not drawn) [Example 13, 2-Amino-5-[4-(difluoromethoxy)-3-(fluoromethyl)phenyl]-3-methyl-5-phenyl-3,5-dihydro-4H-imidazol-4-one], which IC50 is on record?
**A.** Its IC50 is 0.11 to 1 µM.

**Q.** With COc1cc(C2(c3ccccc3)N=C(N)N(C)C2=O)ccc1OC(F)F (stereo not drawn) [Example 15, 2-Amino-5-[4-(difluoromethoxy)-3-methoxyphenyl]-3-methyl-5-phenyl-3,5-dihydro-4H-imidazol-4-one] as the molecule, how does the IC50 read?
**A.** The IC50 was 0.11 to 1 µM.

**Q.** CN1C(=O)C(c2ccccc2)(c2ccc(OC(F)F)c(F)c2)N=C1N (stereo not drawn) [Example 17, 2-Amino-5-[4-(difluoromethoxy)-3-fluorophenyl]-3-methyl-5-phenyl-3,5-dihydro-4H-imidazol-4-one] was tested. Which IC50 did it give?
**A.** The IC50 was 0.11 to 1 µM.

**Q.** How did the IC50 turn out when Cc1cc(C2(c3ccc(OC(F)F)c(C)c3)N=C(N)N(C)C2=O)ccc1F (stereo not drawn) [Example 20, 2-Amino-5-[4-(difluoromethoxy)-3-methylphenyl]-5-(4-fluoro-3-methylphenyl)-3-methyl-3,5-dihydro-4H-imidazol-4-one] was run?
**A.** The IC50 was 0.11 to 1 µM.

**Q.** COc1ccc(C2(c3ccc(OC(F)F)c(C)c3)N=C(N)N(C)C2=O)cc1C#N (stereo not drawn) [Example 21, 5-{2-Amino-4-[4-(difluoromethoxy)-3-methylphenyl]-1-methyl-5-oxo-4,5-dihydro-1H-imidazol-4-yl}-2-methoxybenzonitrile] was tested. Which IC50 did it give?
**A.** Its IC50 is 0.11 to 1 µM.

**Q.** With Cc1cc(C2(c3ccc(F)c(CF)c3)N=C(N)N(C)C2=O)ccc1OC(F)F (stereo not drawn) [Example 22, 2-Amino-5-[4-(difluoromethoxy)-3-methylphenyl]-5-[4-fluoro-3-(fluoromethyl)phenyl]-3-methyl-3,5-dihydro-4H-imidazol-4-one] as the molecule, how does the IC50 read?
**A.** The IC50 was 0.11 to 1 µM.

**Q.** Which IC50 does the source give for CCc1cc([C@]2(c3ccccc3)N=C(N)N(C)C2=O)ccc1OC(F)F [Example 23, (5S)-2-Amino-4-[4-(difluoromethoxy)-3-ethylphenyl]-1-methyl-4-phenyl-1H-imidazol-5(4H)-one] here?
**A.** Its IC50 is less than 0.1 µM.

**Q.** Which IC50 does the source give for CCc1cc([C@@]2(c3ccccc3)N=C(N)N(C)C2=O)ccc1OC(F)F [Example 24, (5R)-2-Amino-4-[4-(difluoromethoxy)-3-ethylphenyl]-1-methyl-4-phenyl-1H-imidazol-5(4H)-one] here?
**A.** Its IC50 is greater than 1 µM.

**Q.** CN1C(=O)[C@](c2ccccc2)(c2ccc(OC(F)F)c(Cl)c2)N=C1N [Example 27, (5S)-2-Amino-5-[3-chloro-4-(difluoromethoxy)phenyl]-1-methyl-5-phenyl-3,5-dihydro-4H-imidazol-4-one] was tested. Which IC50 did it give?
**A.** Its IC50 is 0.11 to 1 µM.

**Q.** How did the IC50 turn out when CN1C(=O)[C@@](c2ccccc2)(c2ccc(OC(F)F)c(Cl)c2)N=C1N [Example 28, (5R)-2-Amino-5-[3-chloro-4-(difluoromethoxy)phenyl]-1-methyl-5-phenyl-3,5-dihydro-4H-imidazol-4-one] was run?
**A.** Its IC50 is greater than 1 µM.

**Q.** How did the IC50 turn out when Cc1cc(C2(c3ccc(F)c(Br)c3)N=C(N)N(C)C2=O)ccc1OC(F)F (stereo not drawn) [Example 31] was run?
**A.** Its IC50 is 0.11 to 1 µM.

**Q.** With Cc1cc(C2(c3ccc(F)c(Br)c3)N=C(N)N(C)C2=O)ccc1OC(F)F (stereo not drawn) [Example 32] as the molecule, how does the IC50 read?
**A.** Its IC50 is less than 0.1 µM.

**Q.** C=Cc1cc([C@@]2(c3ccccc3)N=C(N)N(C)C2=O)ccc1OC(F)F [Example 33, (5R)-2-Amino-5-[4-(difluoromethoxy)-3-vinylphenyl]-3-methyl-5-phenyl-3,5-dihydro-4H-imidazol-4-one] was tested. Which IC50 did it give?
**A.** The IC50 was less than 0.1 µM.

**Q.** For C=Cc1cc([C@]2(c3ccccc3)N=C(N)N(C)C2=O)ccc1OC(F)F [Example 34, (5S)-2-Amino-5-[4-(difluoromethoxy)-3-vinylphenyl]-3-methyl-5-phenyl-3,5-dihydro-4H-imidazol-4-one], which IC50 is on record?
**A.** The IC50 was greater than 1 µM.
